Assay results taken from the NIST ThermoML archive (doi:10.1021/acs.jced.6b00040).
Numbers after ± are expanded uncertainties. Values belong to the compound of their own block, whether it stands above or below them.

Settings: Liquid, Ebulliometric method (Recirculating still)

- vapor or sublimation pressure (361.45 K): 101.3 ± 0.8 kPa
Compound: CC(=O)OC(C)C [1-methylethyl ethanoate]

- vapor or sublimation pressure (463.38 K): 101.3 ± 0.8 kPa
Compound: C[S+](C)[O-] [dimethyl sulfoxide]

- vapor or sublimation pressure (355.33 K): 101.3 ± 0.8 kPa
Compound: CC(C)O [propan-2-ol]
